Source: ChEMBL document CHEMBL5346954, “Rational Design of RNA Demethylase FTO Inhibitors with Enhanced Antileukemia Drug-Like Properties” (J Med Chem, 2023)
Converted amounts (≈) assume the structure as drawn. The source made the active and inactive calls. The calls are words filed in the database; no cut-off is given here.

Tests used:
NB-4 [1] = assay: Antiproliferative activity against human NB4 cells incubated for 72 hrs by CCK8 assay; assay type: functional, cell-based; details: NB-4, 72 h
MOLM-13 [2] = assay: Antiproliferative activity against human MOLM-13 cells incubated for 72 hrs by CCK8 assay; assay type: functional, cell-based; details: MOLM-13, 72 h
[3] = AUC(0 to infinity) in ICR mouse at 1 mg/kg, iv measured upto 24 hrs by LC-MS/MS analysis; assay type: ADME, organism-based; parameters: dose 1 mg/kg, time < 24 hrs, route iv; details: in vivo
[4] = Solubility of the compound in PBS at pH 7.4; assay type: physicochemical
[5] = target: T1, Alpha-ketoglutarate-dependent dioxygenase FTO (Homo sapiens, UniProt Q9C0B1); assay: Inhibition of FTO (unknown origin) using (5'-AUUGUCA(M6A)CAGCAGC-3') as substrate incubated for 2 hrs by dot-blot assay
Target sequence in this assay (Q9C0B1 whole entry): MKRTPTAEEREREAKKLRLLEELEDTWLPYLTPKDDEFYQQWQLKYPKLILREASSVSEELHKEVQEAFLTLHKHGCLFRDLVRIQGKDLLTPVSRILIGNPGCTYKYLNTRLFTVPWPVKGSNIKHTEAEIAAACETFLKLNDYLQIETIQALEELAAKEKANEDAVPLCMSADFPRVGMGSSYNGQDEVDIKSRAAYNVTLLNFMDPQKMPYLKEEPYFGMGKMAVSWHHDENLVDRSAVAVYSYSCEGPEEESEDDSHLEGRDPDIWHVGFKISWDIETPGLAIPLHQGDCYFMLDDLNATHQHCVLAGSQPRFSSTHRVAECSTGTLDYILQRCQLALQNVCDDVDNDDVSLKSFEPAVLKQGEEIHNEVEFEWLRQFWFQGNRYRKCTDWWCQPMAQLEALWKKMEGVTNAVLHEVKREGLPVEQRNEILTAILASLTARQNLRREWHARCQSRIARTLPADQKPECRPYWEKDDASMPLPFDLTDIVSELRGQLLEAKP

[6] = Metabolic stability in mouse liver microsomes assessed as half life; assay type: ADME, Microsome
[7] = Tmax in ICR mouse at 10 mg/kg, po measured upto 24 hrs by LC-MS/MS analysis; assay type: ADME, organism-based; details: in vivo
KG-1 = assay: Antiproliferative activity against human KG-1 cells incubated for 72 hrs by CCK8 assay; assay type: functional, cell-based; details: KG-1, 72 h
[8] = Tmax in ICR mouse at 1 mg/kg, iv measured upto 24 hrs by LC-MS/MS analysis; assay type: ADME, organism-based; details: in vivo
MV4-11 [9] = assay: Antiproliferative activity against human MV4-11 cells incubated for 72 hrs by CCK8 assay; assay type: functional, cell-based; details: MV4-11, 72 h
[10] = target: T1, Alpha-ketoglutarate-dependent dioxygenase FTO; assay: Inhibition of FTO in human MOLM-13 cells assessed as upregulation RARA protein level at 5 to 10 uM incubated for 48 hrs by Western blot analysis; assay type: cell-based; details: dose 5-10 µM
Target sequence in this assay (Q9C0B1 whole entry, looked up): as the sequence (Q9C0B1 whole entry) above

NB-4 [11] = assay: Inhibition of colony formation in human NB4 cells incubated for 14 days by nitroblue tetrazolium chloride staining based assay; assay type: functional, cell-based; details: time 14.0 day
[12] = target: T2, Alpha-ketoglutarate-dependent dioxygenase alkB homolog 3 (Homo sapiens) (UniProt Q96Q83); assay: Inhibition of ALKBH3 (unknown origin)
T2 sequence (whole entry): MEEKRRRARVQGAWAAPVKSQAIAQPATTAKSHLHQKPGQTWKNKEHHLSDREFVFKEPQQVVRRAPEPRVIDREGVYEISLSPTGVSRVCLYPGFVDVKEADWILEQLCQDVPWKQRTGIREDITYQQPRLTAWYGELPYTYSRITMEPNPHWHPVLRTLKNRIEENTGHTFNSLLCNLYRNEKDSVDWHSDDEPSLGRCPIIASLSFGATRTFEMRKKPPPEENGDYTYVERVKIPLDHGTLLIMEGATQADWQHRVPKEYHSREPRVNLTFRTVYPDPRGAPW

MOLM-13 [13] = assay: Inhibition of colony formation in human MOLM-13 cells incubated for 14 days by nitroblue tetrazolium chloride staining based assay; assay type: functional, cell-based; details: time 14.0 day
[14] = target: T1, Alpha-ketoglutarate-dependent dioxygenase FTO; assay: Inhibition of FTO (unknown origin) by PAGE based assay
Target sequence in this assay (Q9C0B1 whole entry): as the sequence (Q9C0B1 whole entry) above

[15] = target: T1, Alpha-ketoglutarate-dependent dioxygenase FTO; assay: Inhibition of FTO (unknown origin)
Target sequence in this assay (Q9C0B1 whole entry): as the sequence (Q9C0B1 whole entry) above

[16] = AUC(0 to t) in ICR mouse at 10 mg/kg, po measured upto 24 hrs by LC-MS/MS analysis; assay type: ADME, organism-based; parameters: dose 10 mg/kg, time < 24 hrs, route po; details: in vivo
[17] = target: RNA demethylase ALKBH5 (Homo sapiens) (UniProt Q6P6C2); assay: Inhibition of ALKBH5 (unknown origin)
[18] = target: T1, Alpha-ketoglutarate-dependent dioxygenase FTO; assay: Inhibition of FTO in human MOLM-13 cells assessed as downregulation Myc RNA level at 5 to 10 uM incubated for 72 hrs by RT-qPCR analysis; assay type: cell-based; details: dose 5-10 µM
Target sequence in this assay (Q9C0B1 whole entry, looked up): as the sequence (Q9C0B1 whole entry) above

[19] = Metabolic stability in human liver microsomes assessed as intrinsic clearance per mg of protein; assay type: ADME, Microsome; details: read-out: CLH
[20] = Metabolic stability in human liver microsomes assessed as half life; assay type: ADME, Microsome
[21] = AUC(0 to t) in ICR mouse at 1 mg/kg, iv measured upto 24 hrs by LC-MS/MS analysis; assay type: ADME, organism-based; parameters: time < 24 hrs, dose 1 mg/kg, route iv; details: in vivo
[22] = AUC(0 to infinity) in ICR mouse at 10 mg/kg, po measured upto 24 hrs by LC-MS/MS analysis; assay type: ADME, organism-based; parameters: time < 24 hrs, dose 10 mg/kg, route po; details: in vivo
[23] = Metabolic stability in mouse liver microsomes assessed as intrinsic clearance per mg of protein; assay type: ADME, Microsome; details: read-out: CLH
MV4-11 [24] = assay: Antitumor activity against human MV4-11 cells xenografted in BALB/c mouse assessed as reduction in tumor weight at 40 mg/kg, ip administered daily for 26 days; assay type: functional, organism-based; details: time 26.0 day
[25] = target: T1, Alpha-ketoglutarate-dependent dioxygenase FTO; assay: Inhibition of FTO in human MOLM-13 cells assessed as upregulation RARA RNA level at 5 to 10 uM incubated for 72 hrs by RT-qPCR analysis; assay type: cell-based; details: dose 5-10 µM
Target sequence in this assay (Q9C0B1 whole entry, looked up): as the sequence (Q9C0B1 whole entry) above

THP-1 = assay: Antiproliferative activity against human THP-1 cells incubated for 72 hrs by CCK8 assay; assay type: functional, cell-based; details: THP-1, 72 h
[26] = target: T1, Alpha-ketoglutarate-dependent dioxygenase FTO; assay: Inhibition of FTO in human NB4 cells assessed as increase in abundance of m6A on RNA at 5 to 20 uM incubated for 48 hrs by dot-blot assay; assay type: cell-based; details: dose 5-20 µM
Target sequence in this assay (Q9C0B1 whole entry, looked up): as the sequence (Q9C0B1 whole entry) above

[27] = Cmax in ICR mouse at 1 mg/kg, iv measured upto 24 hrs by LC-MS/MS analysis; assay type: ADME, organism-based; parameters: time < 24 hrs, dose 1 mg/kg, route iv; details: in vivo
[28] = target: T1, Alpha-ketoglutarate-dependent dioxygenase FTO; assay: Inhibition of FTO in human MOLM-13 cells assessed as downregulation Myc protein level at 5 to 10 uM incubated for 48 hrs by Western blot analysis; assay type: cell-based; details: dose 5-10 µM
Target sequence in this assay (Q9C0B1 whole entry, looked up): as the sequence (Q9C0B1 whole entry) above

[29] = Toxicity in BALB/c mouse xenografted with human MV4-11 cells assessed as body weight loss at 40 mg/kg, ip administered daily for 26 days; assay type: organism-based; details: in vivo, 624 h, time 26 day
Mus musculus = assay: In vivo inhibition of FTO in human MV4-11 cells xenografted in BALB/c mouse assessed as increase in m6A abundance at 40 mg/kg, ip administered daily for 26 days; assay type: functional, organism-based; details: time 26.0 day
[30] = target: T1, Alpha-ketoglutarate-dependent dioxygenase FTO; assay: Inhibition of FTO in human MOLM-13 cells assessed as increase in abundance of m6A on RNA at 5 to 20 uM incubated for 48 hrs by dot-blot assay; assay type: cell-based; details: dose 5-20 µM
Target sequence in this assay (Q9C0B1 whole entry, looked up): as the sequence (Q9C0B1 whole entry) above

[31] = Oral bioavailability in ICR mouse at 10 mg/kg measured upto 24 hrs by LC-MS/MS analysis; assay type: ADME, organism-based; details: in vivo
[32] = Permeability of the compound by PAMPA; assay type: ADME; details: read-out: permeability
MV4-11 [33] = assay: Antitumor activity against human MV4-11 cells xenografted in BALB/c mouse assessed as reduction in tumor volume at 40 mg/kg, ip administered daily for 26 days; assay type: functional, organism-based; details: time 26.0 day
[34] = Cmax in ICR mouse at 10 mg/kg, po measured upto 24 hrs by LC-MS/MS analysis; assay type: ADME, organism-based; parameters: dose 10 mg/kg, time < 24 hrs, route po; details: in vivo
HEL = assay: Antiproliferative activity against HEL cells incubated for 72 hrs by CCK8 assay; assay type: functional, cell-based; details: Homo sapiens

RNA demethylase ALKBH5 (Homo sapiens), sequence (Q6P6C2 2-394 limits assumed): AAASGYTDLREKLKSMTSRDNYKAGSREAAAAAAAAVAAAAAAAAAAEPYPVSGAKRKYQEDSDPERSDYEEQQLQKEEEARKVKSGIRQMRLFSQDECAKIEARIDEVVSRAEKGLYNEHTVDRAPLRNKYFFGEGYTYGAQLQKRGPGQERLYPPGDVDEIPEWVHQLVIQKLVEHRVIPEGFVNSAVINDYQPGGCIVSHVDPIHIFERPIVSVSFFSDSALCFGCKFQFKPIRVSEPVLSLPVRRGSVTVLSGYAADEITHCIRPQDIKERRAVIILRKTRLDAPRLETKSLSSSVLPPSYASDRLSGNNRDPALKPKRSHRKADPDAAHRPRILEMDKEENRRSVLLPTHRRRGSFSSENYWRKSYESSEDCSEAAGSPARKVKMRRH

CCc1cc(-c2ccncc2)cc(CC)c1Nc1cccc(CN2CCCOCC2)c1C(=O)O
IC50 (NB-4 [1]): 1 µM | IC50 (MOLM-13 [2]): 1.5 µM

Cc1noc(C)c1-c1cc(Cl)c(Nc2cccc(CN3CCCOCC3)c2C(=O)O)c(C2CC2)c1
AUC(0-inf) [3]: 55600 ng·h/mL | solubility [4]: 7.6 µM (≈ 3.77 µg/mL) | IC50 [5]: 0.12 µM | half-life [6]: > 3.08 h | Tmax [7]: 0.5 h | IC50 (KG-1): 4.1 µM | Tmax [8]: 2.5 h | IC50 (MV4-11 [9]): 3.4 µM | inhibition [10]: Active | inhibition (NB-4 [11]): Dose-Dependent Effect | IC50 (NB-4 [1]): 1.5 µM | inhibition [12]: inactive | IC50 (MOLM-13 [2]): 1.7 µM | inhibition (MOLM-13 [13]): Dose-Dependent Effect | IC50 [14]: 2.3 µM | IC50 [15]: 2.3 µM | AUC(0-t) at 24 h [16]: 80500 ng·h/mL | inhibition [17]: inactive | inhibition [18]: Active | microsomal CLint [19]: 15.1 µL/min/mg | half-life [20]: 1.53 h | AUC(0-t) at 24 h [21]: 46200 ng·h/mL | AUC(0-inf) [22]: 103000 ng·h/mL | microsomal CLint [23]: 13.3 µL/min/mg | Activity (MV4-11 [24]): Active | inhibition [25]: Active | IC50 (THP-1): 6 µM | inhibition [26]: Active | Cmax [27]: 3700 ng/mL | inhibition [28]: Active | Activity [29]: Non-Toxic | inhibition (Mus musculus): Active | inhibition [30]: Active | bioavailability [31]: 18.5% | Papp [32]: 21.4 ×10⁻⁶ cm/s | Activity (MV4-11 [33]): Active | Cmax [34]: 7200 ng/mL | IC50 (HEL): 10.3 µM

Cc1noc(C)c1-c1cc(Cl)c(Nc2cccc(CN3CCCOCC3)c2C(=O)O)c(C(F)(F)F)c1
solubility [4]: 42.6 µM (≈ 22.3 µg/mL) | IC50 (NB-4 [1]): 2.3 µM | IC50 (MOLM-13 [2]): 2.2 µM | IC50 [15]: 6.1 µM | Papp [32]: 14.1 ×10⁻⁶ cm/s

CCc1cc(-c2ccncc2)cc(CC)c1Nc1cccc(CN(CCOC)CCOC)c1C(=O)O
IC50 [15]: 6.3 µM

Cc1noc(C)c1-c1cc(F)c(Nc2cccc(CN3CCCOCC3)c2C(=O)O)c(F)c1F
IC50 (NB-4 [1]): 1 µM | IC50 (MOLM-13 [2]): 1.5 µM

Cc1n[nH]c(C)c1-c1cc(Cl)c(Nc2cccc(CN3CCCOCC3)c2C(=O)O)c(Cl)c1
solubility [4]: 18.1 µM (≈ 8.86 µg/mL) | IC50 (NB-4 [1]): 1 µM | IC50 (MOLM-13 [2]): 1.5 µM | IC50 [15]: 4 µM | Papp [32]: 4.5 ×10⁻⁶ cm/s

Cc1noc(C)c1-c1cc(F)c(Nc2ccccc2C(=O)O)c(Cl)c1
AUC(0-inf) [3]: 39200 ng·h/mL | solubility [4]: 275 µM (≈ 99.1 µg/mL) | half-life [6]: 1.76 h | Tmax [7]: 1 h | Tmax [8]: 1.5 h | AUC(0-t) at 24 h [16]: 63600 ng·h/mL | microsomal CLint [19]: < 7.5 µL/min/mg | half-life [20]: > 3.08 h | AUC(0-t) at 24 h [21]: 36200 ng·h/mL | AUC(0-inf) [22]: 68800 ng·h/mL | microsomal CLint [23]: < 7.5 µL/min/mg | Cmax [27]: 5400 ng/mL | bioavailability [31]: 17.5% | Papp [32]: 17.4 ×10⁻⁶ cm/s | Cmax [34]: 8500 ng/mL

Cc1noc(C)c1-c1c(F)c(F)c(Nc2cccc(CN3CCCOCC3)c2C(=O)O)c(F)c1F
IC50 (NB-4 [1]): 1 µM | IC50 (MOLM-13 [2]): 1.5 µM

O=C(O)c1c(CN2CCCOCC2)cccc1Nc1c(C2CC2)cc(-c2ccncc2)cc1C1CC1
IC50 [15]: 2.6 µM

CCc1cc(-c2ccncc2)cc(CC)c1Nc1cccc(CN(CC)CCN2CCOCC2)c1C(=O)O
IC50 [15]: 6.8 µM

CCc1cc(-c2ccncc2)cc(CC)c1Nc1cccc(CN(CC)CC)c1C(=O)O
IC50 [15]: 7.6 µM

CCc1cc(-c2ccncc2)cc(CC)c1Nc1cccc(CN2CC(N(C)C)C2)c1C(=O)O
IC50 (NB-4 [1]): 1 µM | IC50 (MOLM-13 [2]): 1.5 µM

CCc1cc(-c2c(C)noc2C)cc(CC)c1Nc1cccc(CN2CCCOCC2)c1C(=O)O
IC50 (NB-4 [1]): 1 µM | IC50 (MOLM-13 [2]): 1.5 µM

CCc1cc(-c2ccncc2)cc(CC)c1Nc1cccc(Cn2ccnc2)c1C(=O)O
IC50 [15]: 6.5 µM

O=C(O)c1c(CN2CCCOCC2)cccc1Nc1c(Cl)cc(-c2nnn[nH]2)cc1Cl
solubility [4]: 305 µM (≈ 141 µg/mL) | Papp [32]: < 0.001 ×10⁻⁶ cm/s
